Laboratory results published in patent publication US20150344444A1, “BET-PROTEIN-INHIBITING DIHYDROXYQUINOXALINONES” (BAYER PHARMA AKTIENGESELLSCHAFT, priority 2012, published 2015).

Experiments:
MOLP-8 cells = assay: MOLP-8 cell proliferation assay (alamarBlue); assay type: cell-based; conditions: inhibition of cell proliferation, 120 hours, human multiple myeloma cell line
Procedure, shortened: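 MOLP-8 myeloma cells in RPMI1640/20% FCS were treated with compound from 1E-5 to 1E-8 M for 120 h at 37 °C. Proliferation was measured by alamarBlue fluorescence (ex 530, em 590 nm), and the reading taken before dosing was subtracted. IC50 is relative to buffer-treated cells.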

B16F10 cells = assay: B16F10 cell proliferation assay (alamarBlue); assay type: cell-based; conditions: B16-F10; inhibition of cell proliferation, 96 hours, mouse melanoma cell line
Procedure, shortened: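 Mouse B16F10 melanoma cells (300-500/well, DMEM, 10% FCS) treated with compound at 1E-5 to 1E-8 M for 96 h at 37° C. alamarBlue fluorescence (ex 530/em 590 nm) before and after treatment; the difference compared to buffer-treated cells gives IC50 for proliferation inhibition.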

MOLM-13 cells = assay: MOLM-13 cell proliferation assay (alamarBlue); assay type: cell-based; conditions: inhibition of cell proliferation, 96 hours, human AML cell line
Procedure, shortened: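 MOLM-13 AML cells (4000/well, RPMI1640 + 10% FCS) treated 96 h at 37 °C with 1E-5 to 1E-8 M compound. Proliferation by alamarBlue fluorescence (ex 530/em 590), pre-treatment reading subtracted; IC50 versus buffer-treated cells.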

[1] = target: T1, BRD4 Bromo Domain 1 [BRD4(1)] (Homo sapiens, UniProt O60885); assay: BRD4(1)/acetylated peptide H4 binding assay (TR-FRET); conditions: inhibition of interaction between His6-tagged BRD4(1) (amino acids 67-152) and acetylated histone H4 peptide
T1 construct: N-terminally His6-tagged BRD4(1) (amino acids 67-152); made in house; host or cells: E. coli
Procedure, shortened: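 His6-BRD4(1) (aa 67-152, E. coli), 10 nM final, with biotinylated tetra-acetylated H4 peptide in HEPES pH 7.5 buffer; 11 compound concentrations 0.1 nM-20 μM in duplicate, 10 min preincubation, then 1 h at 22 °C and ≥3 h at 4 °C. TR-FRET 665/620 ratio; IC50 by 4-parameter fit.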

Compound	IC50 (B16F10 cells) [µM]	IC50 (MOLM-13 cells) [µM]	IC50 [1] [µM]	IC50 (MOLP-8 cells) [µM]
CC(=O)N1CCC(NC(=O)c2ccc(Nc3ccc4c(c3)N(C3CCOCC3)[C@H](C)C(=O)N4C)cc2)CC1 [Example 32, N-(1-acetylpiperidin-4-yl)-4-{[(3R)-1,3-dimethyl-2-oxo-4-(tetrahydro-2H-pyran-4-yl)-1,2,3,4-tetrahydroquinoxalin-6-yl]amino}benzamide]	6.42	3.45	0.371	2.58
CC(C)N1CCN(C(=O)c2ccc(Nc3ccc4c(c3)N(C3CCOCC3)[C@H](C)C(=O)N4C)cc2)CC1 [Example 33]	1.75	1.05	0.31	0.509
C[C@@H]1C(=O)N(C)c2ccc(Nc3ccc(C(=O)NC4CN(C)C4)cc3)cc2N1C1CCOCC1 [Example 34, 4-{[(3R)-1,3-dimethyl-2-oxo-4-(tetrahydro-2H-pyran-4-yl)-1,2,3,4-tetrahydroquinoxalin-6-yl]amino}-N-(1-methylazetidin-3-yl)benzamide]	3.57	2.1	0.511	1.54
C[C@@H]1C(=O)N(C)c2ccc(Nc3ccc(C(=O)NC4CC4)cc3)cc2N1C1CCOCC1 [Example 35, N-cyclopropyl-4-{[(3R)-1,3-dimethyl-2-oxo-4-(tetrahydro-2H-pyran-4-yl)-1,2,3,4-tetrahydroquinoxalin-6-yl]amino}benzamide]	2.4	2.48	0.365	1.39
COc1cc(C(=O)NC2CCN(C)CC2)ccc1Nc1ccc2c(c1)N(C1CCOCC1)[C@H](C)C(=O)N2C [Example 36, 4-{[(3R)-1,3-dimethyl-2-oxo-4-(tetrahydro-2H-pyran-4-yl)-1,2,3,4-tetrahydroquinoxalin-6-yl]amino}-3-methoxy-N-(1-methylpiperidin-4-yl)benzamide]	2.09	1.08	0.482	0.675
COc1cc(C(=O)N2CCN(C)CC2)ccc1Nc1ccc2c(c1)N(C1CCOCC1)[C@H](C)C(=O)N2C [Example 38, (3R)-6-({2-methoxy-4-[(4-methylpiperazin-1-yl)carbonyl]phenyl}amino)-1,3-dimethyl-4-(tetrahydro-2H-pyran-4-yl)-3,4-dihydroquinoxalin-2(1H)-one]	1.78	1.79	0.272	0.758

Stronger by IC50 (B16F10 cells), values ahead:

IC50 (B16F10 cells) [µM]	IC50 (MOLM-13 cells) [µM]	IC50 [1] [µM]	Compound	IC50 (MOLP-8 cells) [µM]
1.51	1.08	0.422	COc1cc(C(=O)NC2CCC(N3CCN(CC4CC4)CC3)CC2)ccc1Nc1ccc2c(c1)N(C1CCOCC1)[C@H](C)C(=O)N2C (stereo partly drawn) [Example 37, N-{4-[4-(cyclopropylmethyl)piperazin-1-yl]cyclohexyl}-4-{[(3R)-1,3-dimethyl-2-oxo-4-(tetrahydro-2H-pyran-4-yl)-1,2,3,4-tetrahydroquinoxalin-6-yl]amino}-3-methoxybenzamide]	0.479
0.175	0.145	0.183	COc1ccc(CN2c3cc(Nc4ccc(S(=O)(=O)N(C)C)cc4)ccc3N(C)C(=O)[C@H]2C)cc1 [Example 41, 4-{[(3R)-4-(4-methoxybenzyl)-1,3-dimethyl-2-oxo-1,2,3,4-tetrahydroquinoxalin-6-yl]amino}-N,N-dimethylbenzenesulphonamide]	0.077
0.079	0.149	0.12	COc1ccc(CN2c3cc(Nc4ccc(S(=O)(=O)N5CCOCC5)cc4)ccc3N(C)C(=O)[C@H]2C)cc1 [Example 42, (3R)-4-(4-methoxybenzyl)-1,3-dimethyl-6-{[4-(morpholin-4-ylsulphonyl)phenyl]amino}-3,4-dihydroquinoxalin-2(1H)-one]	0.061
0.212	0.145	0.103	COc1ccc(CN2c3cc(Nc4ccc(S(=O)(=O)N5CCN(C)CC5)cc4)ccc3N(C)C(=O)[C@H]2C)cc1 [Example 43, (3R)-4-(4-methoxybenzyl)-1,3-dimethyl-6-({4-[(4-methylpiperazin-1-yl)sulphonyl]phenyl}amino)-3,4-dihydroquinoxalin-2(1H)-one]	0.035
0.46	0.34	0.055	COc1ccc(CN2c3cc(Nc4ccc(S(=O)(=O)N5CCN(C(C)C)CC5)cc4)ccc3N(C)C(=O)[C@H]2C)cc1 [Example 44, (3R)-4-(4-methoxybenzyl)-1,3-dimethyl-6-[(4-{[4-(propan-2-yl)piperazin-1-yl]sulphonyl}phenyl)amino]-3,4-dihydroquinoxalin-2(1H)-one]	0.101
1.57	1.34	0.264	C[C@@H]1C(=O)N(C)c2ccc(Nc3ccc(S(=O)(=O)N(C)C)cc3)cc2N1C1CCCCCC1 [Example 45, 4-{[(3R)-4-cycloheptyl-1,3-dimethyl-2-oxo-1,2,3,4-tetrahydroquinoxalin-6-yl]amino}-N,N-dimethylbenzenesulphonamide]	1.1
0.6	0.719	0.145	C[C@@H]1C(=O)N(C)c2ccc(Nc3ccc(S(=O)(=O)N(C)C)cc3)cc2N1C1CCOCC1 [Example 46, 4-{[(3R)-1,3-dimethyl-2-oxo-4-(tetrahydro-2H-pyran-4-yl)-1,2,3,4-tetrahydroquinoxalin-6-yl]amino}-N,N-dimethylbenzenesulphonamide]	0.365
0.423	0.407	0.095	C[C@@H]1C(=O)N(C)c2ccc(Nc3ccc(S(=O)(=O)N4CCOCC4)cc3)cc2N1C1CCOCC1 [Example 47, (3R)-1,3-dimethyl-6-{[4-(morpholin-4-ylsulphonyl)phenyl]amino}-4-(tetrahydro-2H-pyran-4-yl)-3,4-dihydroquinoxalin-2(1H)-one]	0.496
1.45	1.25	0.237	C[C@@H]1C(=O)N(C)c2ccc(Nc3ccc(S(=O)(=O)N4CCN(C)CC4)cc3)cc2N1C1CCOCC1 [Example 48, (3R)-1,3-dimethyl-6-({4-[(4-methylpiperazin-1-yl)sulphonyl]phenyl}amino)-4-(tetrahydro-2H-pyran-4-yl)-3,4-dihydroquinoxalin-2(1H)-one]	0.803
